“And” between values parts separate entries of the source, which are not always exact repeats. Equal values may be shown once.
Assay: specific heat capacity at constant pressure; xn = mol fraction of the nth substance listed
Details: 100 kPa, Crystal of intercomponent compound 1, x2 = 0.486

[Te] [tellurium] + [Ga]
Details	specific heat capacity
241.59 K, relaxation calorimetry	244.22 J/K/kg
241.78 K, relaxation calorimetry	242.8 J/K/kg
241.86 K, relaxation calorimetry	243.61 J/K/kg
241.89 K, relaxation calorimetry	243.51 J/K/kg
245.93 K, relaxation calorimetry	243.46 J/K/kg
245.97 K, relaxation calorimetry	243.31 J/K/kg
246.62 K, relaxation calorimetry	244.93 J/K/kg
246.79 K, relaxation calorimetry	243.87 J/K/kg
248.47 K, relaxation calorimetry	241.79 J/K/kg
248.52 K, relaxation calorimetry	242.09 J/K/kg
248.53 K, relaxation calorimetry	241.99 J/K/kg
249.9 K, relaxation calorimetry	242.85 J/K/kg
249.93 K, relaxation calorimetry	242.9 J/K/kg
251.64 K, relaxation calorimetry	245.64 J/K/kg
251.81 K, relaxation calorimetry	244.63 J/K/kg
253.96 K, relaxation calorimetry	242.96 J/K/kg
254 K, relaxation calorimetry	243.06 J/K/kg
256.38 K, relaxation calorimetry	242.14 J/K/kg
256.44 K, relaxation calorimetry	242.35 J/K/kg and 242.65 J/K/kg
256.66 K, relaxation calorimetry	246.25 J/K/kg
256.83 K, relaxation calorimetry	245.08 J/K/kg
258.12 K, relaxation calorimetry	244.12 J/K/kg
258.16 K, relaxation calorimetry	244.02 J/K/kg
260.51 K, Extra sensitive DSC	245.54 J/K/kg
261.66 K, relaxation calorimetry	248.07 J/K/kg
261.82 K, relaxation calorimetry	246.86 J/K/kg
262.18 K, relaxation calorimetry	245.13 J/K/kg
262.22 K, relaxation calorimetry	244.93 J/K/kg
263.12 K, Extra sensitive DSC	246.4 J/K/kg
264.28 K, relaxation calorimetry	243.97 J/K/kg
264.35 K, relaxation calorimetry	244.43 J/K/kg and 244.17 J/K/kg
265.73 K, Extra sensitive DSC	246.3 J/K/kg
266.13 K, relaxation calorimetry	246.15 J/K/kg
266.19 K, relaxation calorimetry	245.59 J/K/kg
266.68 K, relaxation calorimetry	246.55 J/K/kg
266.71 K, relaxation calorimetry	246.55 J/K/kg
266.72 K, relaxation calorimetry	246.4 J/K/kg
268.33 K, Extra sensitive DSC	246.81 J/K/kg
270.07 K, Extra sensitive DSC	246.96 J/K/kg
270.3 K, relaxation calorimetry	248.78 J/K/kg
270.35 K, relaxation calorimetry	247.67 J/K/kg
270.64 K, relaxation calorimetry	247.06 J/K/kg
270.65 K, relaxation calorimetry	246.66 J/K/kg
271.54 K, relaxation calorimetry	248.83 J/K/kg
271.73 K, relaxation calorimetry	246.76 J/K/kg
271.83 K, relaxation calorimetry	246.35 J/K/kg
272.68 K, Extra sensitive DSC	247.06 J/K/kg
272.79 K, relaxation calorimetry	247.62 J/K/kg
272.8 K, relaxation calorimetry	247.31 J/K/kg
273.54 K, relaxation calorimetry	249.19 J/K/kg
273.74 K, relaxation calorimetry	246.71 J/K/kg
273.84 K, relaxation calorimetry	246.55 J/K/kg
275.28 K, Extra sensitive DSC	247.26 J/K/kg
275.55 K, relaxation calorimetry	249.14 J/K/kg
275.75 K, relaxation calorimetry	246.76 J/K/kg
275.85 K, relaxation calorimetry	246.5 J/K/kg
277.54 K, relaxation calorimetry	249.29 J/K/kg
277.75 K, relaxation calorimetry	246.76 J/K/kg
277.85 K, relaxation calorimetry	246.55 J/K/kg
277.88 K, Extra sensitive DSC	247.72 J/K/kg
279.54 K, relaxation calorimetry	249.09 J/K/kg
279.76 K, relaxation calorimetry	246.5 J/K/kg
279.87 K, relaxation calorimetry	246.45 J/K/kg
280.49 K, Extra sensitive DSC	247.87 J/K/kg
281.52 K, relaxation calorimetry	249.09 J/K/kg
281.76 K, relaxation calorimetry	246.25 J/K/kg
281.87 K, relaxation calorimetry	246.1 J/K/kg
283.09 K, Extra sensitive DSC	248.33 J/K/kg
283.53 K, relaxation calorimetry	248.99 J/K/kg
283.78 K, relaxation calorimetry	246.15 J/K/kg
283.87 K, relaxation calorimetry	246.66 J/K/kg
285.53 K, relaxation calorimetry	249.44 J/K/kg
285.7 K, Extra sensitive DSC	248.58 J/K/kg
285.78 K, relaxation calorimetry	246.4 J/K/kg
285.88 K, relaxation calorimetry	246.6 J/K/kg
287.54 K, relaxation calorimetry	249.54 J/K/kg
287.78 K, relaxation calorimetry	246.35 J/K/kg
287.89 K, relaxation calorimetry	246.66 J/K/kg
288.3 K, Extra sensitive DSC	248.89 J/K/kg
289.53 K, relaxation calorimetry	249.65 J/K/kg
289.79 K, relaxation calorimetry	246.55 J/K/kg
289.89 K, relaxation calorimetry	246.86 J/K/kg
290.04 K, Extra sensitive DSC	248.94 J/K/kg
291.53 K, relaxation calorimetry	250.41 J/K/kg
291.8 K, relaxation calorimetry	247.16 J/K/kg
291.9 K, relaxation calorimetry	247.52 J/K/kg
292.64 K, Extra sensitive DSC	249.09 J/K/kg
293.52 K, relaxation calorimetry	251.32 J/K/kg
293.81 K, relaxation calorimetry	248.68 J/K/kg
293.9 K, relaxation calorimetry	248.89 J/K/kg
295.25 K, Extra sensitive DSC	249.29 J/K/kg
295.51 K, relaxation calorimetry	251.37 J/K/kg
295.84 K, relaxation calorimetry	249.34 J/K/kg
295.91 K, relaxation calorimetry	249.34 J/K/kg
297.52 K, relaxation calorimetry	250.81 J/K/kg
297.83 K, relaxation calorimetry	250.71 J/K/kg
297.85 K, Extra sensitive DSC	249.75 J/K/kg
297.93 K, relaxation calorimetry	248.68 J/K/kg
299.53 K, relaxation calorimetry	250.25 J/K/kg
299.85 K, relaxation calorimetry	250.15 J/K/kg
299.94 K, relaxation calorimetry	248.63 J/K/kg
300.45 K, Extra sensitive DSC	249.9 J/K/kg
301.54 K, relaxation calorimetry	251.06 J/K/kg
301.87 K, relaxation calorimetry	250.86 J/K/kg
301.95 K, relaxation calorimetry	249.39 J/K/kg
303.06 K, Extra sensitive DSC	250.51 J/K/kg
303.81 K, relaxation calorimetry	250.56 J/K/kg
303.84 K, relaxation calorimetry	252.33 J/K/kg
303.87 K, relaxation calorimetry	250.51 J/K/kg
305.66 K, Extra sensitive DSC	250.76 J/K/kg
307.4 K, Extra sensitive DSC	250.81 J/K/kg
310 K, Extra sensitive DSC	251.22 J/K/kg
312.6 K, Extra sensitive DSC	251.42 J/K/kg
315.21 K, Extra sensitive DSC	251.88 J/K/kg
317.81 K, Extra sensitive DSC	251.93 J/K/kg
320.41 K, Extra sensitive DSC	252.23 J/K/kg
323.02 K, Extra sensitive DSC	252.48 J/K/kg
325.62 K, Extra sensitive DSC	252.53 J/K/kg
327.36 K, Extra sensitive DSC	252.74 J/K/kg
329.96 K, Extra sensitive DSC	253.04 J/K/kg
332.56 K, Extra sensitive DSC	253.19 J/K/kg
335.17 K, Extra sensitive DSC	253.5 J/K/kg
337.77 K, Extra sensitive DSC	253.7 J/K/kg
340.38 K, Extra sensitive DSC	254 J/K/kg
342.98 K, Extra sensitive DSC	254.41 J/K/kg
345.58 K, Extra sensitive DSC	254.41 J/K/kg
348.19 K, Extra sensitive DSC	254.76 J/K/kg
349.92 K, Extra sensitive DSC	254.76 J/K/kg
352.53 K, Extra sensitive DSC	254.66 J/K/kg
355.13 K, Extra sensitive DSC	255.32 J/K/kg
356.87 K, Extra sensitive DSC	255.07 J/K/kg
358.6 K, Extra sensitive DSC	254.97 J/K/kg

Source: the NIST ThermoML archive (doi:10.1016/j.jct.2018.08.013)
